The melting point is the temperature of the solid-liquid transition.

From patent publication US20240293362A1, “Soluble Epoxide Hydrolase Inhibitors and Use Thereof” (Board of Trustees of Michigan State University, priority 2021, published 2024) come the findings set out here.

Compound `CCC(=O)N1CCC(NC(=O)Nc2ccc(OC(F)(F)F)cc2)C(F)(F)C1` (stereo not drawn) [Example 44, 1-(3,3-difluoro-1-propionylpiperidin-4-yl)-3-(4-(trifluoromethoxy)phenyl)urea] returned a melting point of 223 to 224 °C.

In turn, `CCC(=O)N1CC[C@@H](NC(=O)Nc2ccc(OC(F)(F)F)cc2)[C@@H](F)C1` [Example 45, 1-((3S,4R)-3-fluoro-1-propionylpiperidin-4-yl)-3-(4-(trifluoromethoxy)phenyl)urea] gave a melting point of 231 to 232 °C.

`CCC(=O)NCC1CCN(C(=O)Nc2ccc(OC(F)(F)F)cc2)C1` (stereo not drawn) [Example 12, 3-(propanamidomethyl)-N-[4-(trifluoromethoxy)phenyl]pyrrolidine-1-carboxamide] gave a melting point of 166 to 167 °C.

In the case of `CCC(=O)N1CC[C@H](NC(=O)Nc2ccc(OC(F)(F)F)cc2)[C@H](F)C1` [Example 46, 1-((3R,4S)-3-fluoro-1-propionylpiperidin-4-yl)-3-(4-(trifluoromethoxy)phenyl)urea], the melting point is 245 to 246 °C. The compound `CCC(=O)N1CC[C@H](NC(=O)Nc2ccc(OC(F)(F)F)cc2)C[C@H]1C` [Example 48, 1-((2R,4S)-2-methyl-1-propionylpiperidin-4-yl)-3-(4-(trifluoromethoxy)phenyl)urea] returned a melting point of 175 to 176 °C.

`CCC(=O)N1CC[C@H](NC(=O)Nc2ccc(OC(F)(F)F)cc2)[C@@H](F)C1` [Example 47, 1-((3S,4S)-3-fluoro-1-propionylpiperidin-4-yl)-3-(4-(trifluoromethoxy)phenyl)urea] displayed a melting point of 180 to 181 °C.
